What was measured:
[1] = system: KLPN multi-drug resistant strains; assay: MIC against multi-drug resistant strains (Table 5); assay type: cell-based, Klebsiella pneumonia; details: alone
Description: (§1) MIC experiments of the antimicrobial agents were determined by a modified broth microdilution method in accordance with the Clinical and Laboratory Standards Institute (CLSI) guidelines using 96 well culture plates. In brief, serial dilutions of all plates were prepared at different concentrations (μg). The inoculum suspension was prepared by adding isolated colonies from a 18-20 hours on TSA plate into phosphate buffer (0.31 mM, pH 7.2) or in water for injection (BBraun) and adjusting the suspension to a turbidity equivalent to 0.5 McFarland Standard. Each well contained a final bacterial concentration of approximately 5×10^5 colony forming units (CFU)/mL. The plate was covered and incubated at 35° C. for 24 hours. […] For the microdilution plates, turbidity in wells can be measured at OD600 using TECAN infinite M200Pro. MIC was determined as […] concentration that gives a 99 percent inhibition.

[2] = system: ENT CLOACAE multi-drug resistant strains; assay: MIC against multi-drug resistant strains (Table 5); assay type: cell-based, E. cloacae; details: alone
Description: as §1

various pathogens = assay: organism not typed; assay type: cell-based
Description: The MICs of the individual drugs and LC compound in combinations were determined using the broth microdilution technique as recommended by the CLSI whereby the two anti-microbial agents were added in an equal amount. (e.g.: 50 μL of Colistin: 50 μL of LC compounds). Diluted media containing compounds and antibiotics will be serially diluted 2-fold, and LC compounds and antibiotics alone or in combination will be assayed at fixed synergy concentration. In all cases, the lowest concentration at which no visible growth occurred was be recorded to be the MIC value of individual and combined antibacterial agents. The results were obtained after 24 hours of incubation.
Using the combination of LC100 and colistin, the activity of a broad range of strains was further tested (Table 7).

[3] = 6093560257 [MCR 1+, E. Coli, NDM-1]
[4] = 7103531927 [MCR 1+, E. Coli, KPC+]
[5] = 7113636863 [MCR 1+, E. Coli, NDM-1]

CCN(CC)CCCCOc1ccc(/C=C/C(=O)c2ccc(OCCCCN(CC)CC)c(CC=C(C)C)c2O)cc1 [LC100]
MIC ([1]; strain KLPN 8852): >50 µg/mL
MIC ([1]; strain KLPN 15588): >50 µg/mL
MIC ([1]; strain KLPN 24076): >50 µg/mL
MIC ([1]; strain KLPN 27025): >50 µg/mL
MIC ([2]; strain ENT CLOACAE 6780): >50 µg/mL
MIC ([2]; strain ENT CLOACAE 21489): >50 µg/mL
MIC ([2]; strain ENT CLOACAE 30063): >50 µg/mL
MIC ([2]; strain ENT CLOACAE 44095): >50 µg/mL
Pathogen sensitivity (✓/x), Colistin 0.5 μg+ LC100 1 μg (various pathogens; 6083655967 [MCR 1+, E. Coli]): ✓
Pathogen sensitivity (✓/x), Colistin 0.5 μg+ LC100 2 μg (various pathogens; 6083655967 [MCR 1+, E. Coli]): ✓
Pathogen sensitivity (✓/x), Colistin 1 μg+ LC100 1 μg (various pathogens; 6083655967 [MCR 1+, E. Coli]): ✓
Pathogen sensitivity (✓/x), Colistin 1 μg+ LC100 2 μg (various pathogens; 6083655967 [MCR 1+, E. Coli]): ✓
Pathogen sensitivity (✓/x), Colistin 0.5 μg+ LC100 1 μg (various pathogens; [3]): ✓
Pathogen sensitivity (✓/x), Colistin 0.5 μg+ LC100 2 μg (various pathogens; [3]): ✓
Pathogen sensitivity (✓/x), Colistin 1 μg+ LC100 1 μg (various pathogens; [3]): ✓
Pathogen sensitivity (✓/x), Colistin 1 μg+ LC100 2 μg (various pathogens; [3]): ✓
Pathogen sensitivity (✓/x), Colistin 0.5 μg+ LC100 1 μg (various pathogens; 6123520276 [MCR 1+, E. Coli]): ✓
Pathogen sensitivity (✓/x), Colistin 0.5 μg+ LC100 2 μg (various pathogens; 6123520276 [MCR 1+, E. Coli]): ✓
Pathogen sensitivity (✓/x), Colistin 1 μg+ LC100 1 μg (various pathogens; 6123520276 [MCR 1+, E. Coli]): ✓
Pathogen sensitivity (✓/x), Colistin 1 μg+ LC100 2 μg (various pathogens; 6123520276 [MCR 1+, E. Coli]): ✓
Pathogen sensitivity (✓/x), Colistin 0.5 μg+ LC100 1 μg (various pathogens; 7023436560 [MCR 1+, E. Coli]): ✓
Pathogen sensitivity (✓/x), Colistin 0.5 μg+ LC100 2 μg (various pathogens; 7023436560 [MCR 1+, E. Coli]): ✓
Pathogen sensitivity (✓/x), Colistin 1 μg+ LC100 1 μg (various pathogens; 7023436560 [MCR 1+, E. Coli]): ✓
Pathogen sensitivity (✓/x), Colistin 1 μg+ LC100 2 μg (various pathogens; 7023436560 [MCR 1+, E. Coli]): ✓
Pathogen sensitivity (✓/x), Colistin 0.5 μg+ LC100 1 μg (various pathogens; 7023444207 [MCR 1+, E. Coli]): ✓
Pathogen sensitivity (✓/x), Colistin 0.5 μg+ LC100 2 μg (various pathogens; 7023444207 [MCR 1+, E. Coli]): ✓
Pathogen sensitivity (✓/x), Colistin 1 μg+ LC100 1 μg (various pathogens; 7023444207 [MCR 1+, E. Coli]): ✓
Pathogen sensitivity (✓/x), Colistin 1 μg+ LC100 2 μg (various pathogens; 7023444207 [MCR 1+, E. Coli]): ✓
Pathogen sensitivity (✓/x), Colistin 0.5 μg+ LC100 1 μg (various pathogens; 7023446108 [MCR 1−, E. Coli]): ✓
Pathogen sensitivity (✓/x), Colistin 0.5 μg+ LC100 2 μg (various pathogens; 7023446108 [MCR 1−, E. Coli]): ✓
Pathogen sensitivity (✓/x), Colistin 1 μg+ LC100 1 μg (various pathogens; 7023446108 [MCR 1−, E. Coli]): ✓
Pathogen sensitivity (✓/x), Colistin 1 μg+ LC100 2 μg (various pathogens; 7023446108 [MCR 1−, E. Coli]): ✓
Pathogen sensitivity (✓/x), Colistin 0.5 μg+ LC100 1 μg (various pathogens; 7033607097 [MCR 1−, E. Coli]): ✓
Pathogen sensitivity (✓/x), Colistin 0.5 μg+ LC100 2 μg (various pathogens; 7033607097 [MCR 1−, E. Coli]): ✓
Pathogen sensitivity (✓/x), Colistin 1 μg+ LC100 1 μg (various pathogens; 7033607097 [MCR 1−, E. Coli]): ✓
Pathogen sensitivity (✓/x), Colistin 1 μg+ LC100 2 μg (various pathogens; 7033607097 [MCR 1−, E. Coli]): ✓
Pathogen sensitivity (✓/x), Colistin 0.5 μg+ LC100 1 μg (various pathogens; [4]): ✓
Pathogen sensitivity (✓/x), Colistin 0.5 μg+ LC100 2 μg (various pathogens; [4]): ✓
Pathogen sensitivity (✓/x), Colistin 1 μg+ LC100 1 μg (various pathogens; [4]): ✓
Pathogen sensitivity (✓/x), Colistin 1 μg+ LC100 2 μg (various pathogens; [4]): ✓
Pathogen sensitivity (✓/x), Colistin 0.5 μg+ LC100 1 μg (various pathogens; [5]): ✓
Pathogen sensitivity (✓/x), Colistin 0.5 μg+ LC100 2 μg (various pathogens; [5]): ✓
Pathogen sensitivity (✓/x), Colistin 1 μg+ LC100 1 μg (various pathogens; [5]): ✓
Pathogen sensitivity (✓/x), Colistin 1 μg+ LC100 2 μg (various pathogens; [5]): ✓
Pathogen sensitivity (✓/x), Colistin 0.5 μg+ LC100 1 μg (various pathogens; KLPN ATCC 10031): ✓
Pathogen sensitivity (✓/x), Colistin 0.5 μg+ LC100 1 μg (various pathogens; KLPN CRE 15588): ✓
Pathogen sensitivity (✓/x), Colistin 1 μg+ LC100 1 μg (various pathogens; KLPN CRE 15588): ✓
Pathogen sensitivity (✓/x), Colistin 0.5 μg+ LC100 1 μg (various pathogens; KLPN CRE 16260): ✓
Pathogen sensitivity (✓/x), Colistin 0.5 μg+ LC100 2 μg (various pathogens; KLPN CRE 16260): ✓
Pathogen sensitivity (✓/x), Colistin 0.5 μg+ LC100 5 μg (various pathogens; KLPN CRE 16260): ✓
Pathogen sensitivity (✓/x), Colistin 1 μg+ LC100 1 μg (various pathogens; KLPN CRE 16260): ✓
Pathogen sensitivity (✓/x), Colistin 1 μg+ LC100 2 μg (various pathogens; KLPN CRE 16260): ✓
Pathogen sensitivity (✓/x), Colistin 1 μg+ LC100 5 μg (various pathogens; KLPN CRE 16260): ✓
Pathogen sensitivity (✓/x), Colistin 0.5 μg+ LC100 1 μg (various pathogens; PAE ATCC 15442): ✓
Pathogen sensitivity (✓/x), Colistin 0.5 μg+ LC100 2 μg (various pathogens; PAE ATCC 15442): ✓
Pathogen sensitivity (✓/x), Colistin 1 μg+ LC100 1 μg (various pathogens; PAE ATCC 15442): ✓
Pathogen sensitivity (✓/x), Colistin 0.5 μg+ LC100 1 μg (various pathogens; PAE ATCC BAA-1744): ✓
Pathogen sensitivity (✓/x), Colistin 0.5 μg+ LC100 2 μg (various pathogens; PAE ATCC BAA-1744): ✓
Pathogen sensitivity (✓/x), Colistin 0.5 μg+ LC100 1 μg (various pathogens; PAE DM 4150): ✓
Pathogen sensitivity (✓/x), Colistin 0.5 μg+ LC100 2 μg (various pathogens; PAE DM 4150): ✓
Pathogen sensitivity (✓/x), Colistin 0.5 μg+ LC100 5 μg (various pathogens; PAE DM 4150): ✓
Pathogen sensitivity (✓/x), Colistin 0.5 μg+ LC100 1 μg (various pathogens; PAE DM 23155): ✓
Pathogen sensitivity (✓/x), Colistin 0.5 μg+ LC100 2 μg (various pathogens; PAE DM 23155): ✓
Pathogen sensitivity (✓/x), Colistin 1 μg+ LC100 1 μg (various pathogens; PAE DM 23155): ✓
Pathogen sensitivity (✓/x), Colistin 1 μg+ LC100 2 μg (various pathogens; PAE DM 23155): ✓
Pathogen sensitivity (✓/x), Colistin 0.5 μg+ LC100 1 μg (various pathogens; PAE DM 23257): ✓
Pathogen sensitivity (✓/x), Colistin 0.5 μg+ LC100 2 μg (various pathogens; PAE DM 23257): ✓
Pathogen sensitivity (✓/x), Colistin 0.5 μg+ LC100 5 μg (various pathogens; PAE DM 23257): ✓
Pathogen sensitivity (✓/x), Colistin 1 μg+ LC100 1 μg (various pathogens; PAE DM 23257): ✓
Pathogen sensitivity (✓/x), Colistin 0.5 μg+ LC100 1 μg (various pathogens; PAE DM 23376): ✓
Pathogen sensitivity (✓/x), Colistin 0.5 μg+ LC100 2 μg (various pathogens; PAE DM 23376): ✓
Pathogen sensitivity (✓/x), Colistin 0.5 μg+ LC100 1 μg (various pathogens; PAE DR 5790): ✓
Pathogen sensitivity (✓/x), Colistin 0.5 μg+ LC100 1 μg (various pathogens; PAE DU 14476): ✓
Pathogen sensitivity (✓/x), Colistin 0.5 μg+ LC100 2 μg (various pathogens; PAE DU 14476): ✓
Pathogen sensitivity (✓/x), Colistin 0.5 μg+ LC100 5 μg (various pathogens; PAE DU 14476): ✓
Pathogen sensitivity (✓/x), Colistin 1 μg+ LC100 1 μg (various pathogens; PAE DU 14476): ✓

Source: patent US12473250B2, “Molecular design of new antibiotics and antibiotic adjuvants against MCR strains” (priority 2019, dated 2025)
